# Data: a melting point compilation (Tetko et al.; mined from patent text by program, amines drawn as free bases though some values may be those of a salt)
row,melting point [°C],SMILES
1,200 to 202,CS(=O)(=O)N1CCN(c2cc(Cl)ncn2)CC1
2,110 to 112,CCCC(=O)c1cnc2c(C)cccc2c1Nc1ccccc1C
3,238 to 240,COc1cc2c3c(n(C)c(=O)c2cc1OC)-c1cc(OCc2ccccc2)c(OCc2ccccc2)cc1C3=O
4,49 to 51,COCCCc1cc(Cl)cc2nc(Cc3ccccc3Cl)oc12
5,155,CCC(=O)Nc1cccc(NC(=O)C=C(C)OC)c1
6,> 300,Cc1nc(N)c(O)c(=O)[nH]1
7,153 to 157,CC(C)(C)Nc1nc(Cl)cc(N2CCCC2)n1
8,83 to 85,CCOC(=O)c1ccc(OCCc2c(CCNS(=O)(=O)Cc3ccc(Cl)c(Cl)c3)n(C(c3ccccc3)c3ccccc3)c3ccc(Cl)cc23)cc1F
9,135 to 137,CCNC(=O)C(C)Oc1ncn(-c2cccc(C(F)(F)F)c2)n1 (stereo not drawn)
10,192 to 194,NC(=O)CCCCCCCCCCCNC(N)=NC(=O)c1nc(Cl)c(N)nc1N
11,130,COC(=C1C2CC3CC1CC(Cl)(C3)C2)c1cc(O)cc(Cl)c1
12,177 to 178,CCOC(=O)NNC(=O)Nc1c(F)cc(F)cc1F
13,110 to 111,COC(=O)c1ccc2c(c1)Sc1cc3c(cc1CC2)CCC3
14,221,c1ccc(-c2ccc3[nH]c4ccccc4c3c2)cc1
15,90 to 91,COc1cc(CCC2OCCO2)ccc1OCc1nc(-c2ccccc2)oc1C
16,193,Oc1ccc(CCNc2ncnc3scnc23)c(F)c1
17,85 to 87,COC(=O)c1ccc(C(=O)OC)c(Nc2ccccc2)c1
18,218 to 219,N#CCCNC(=O)c1nn(C2CCCCO2)cc1NC(=O)c1cc(Cl)ccn1 (stereo not drawn)
19,272 to 274,NS(=O)(=O)c1cc2c(c(C(=O)O)c1)OCCO2
20,77,CC(NC(N)=S)c1ccc(NS(C)(=O)=O)cc1 (stereo not drawn)
21,156 to 158,CNC(=NCCCSCn1cncc1C)NC#N
22,110 to 111,O=C(/C=C/c1cccc(Br)c1)NC1CC1
23,171 to 173,Nc1ccc2c(c1)C(=O)N(CCO)C2=O
24,174 to 175,CCCCN1CCC(NS(=O)(=O)c2ccc(NC(C)=O)cc2)CC1

row,melting point [°C],SMILES
1,166 to 167,CSc1ccc(-c2ccccc2)c(NC(N)=S)c1
2,111 to 113,CONS(=O)(=O)c1cccc([N+](=O)[O-])c1
3,148 to 151,N=C(NCc1cccnc1)NN=Cc1c(Cl)cccc1Cl
4,120 to 124,CCNC(=NC#N)NC
5,57 to 58,CCOC(=O)c1ccc(Oc2ccc(C(C)=C3SCCCS3)cc2)cc1
6,266 to 268,O=c1[nH]cc(Cl)c2ccc(CO)cc12
7,100,COC1(c2cc(F)cc(F)c2)CCOCC1
8,62,CC(C)(C)OC(=O)[C@@H]1C[C@H](c2ccccc2)CN1
9,221 to 222,CCCOc1ccccc1-c1nc2nnc(OC)nc2c(=O)[nH]1
10,193 to 195,CCCC(=O)NS(=O)(=O)c1ccc(C(=O)/C=C/c2cc(N3CCCC3)c(OC)cc2OC)cc1
11,100,CC(=O)c1ccc(-n2cnc(C)c2)cc1
12,233 to 234,CCCOc1ccc(OC)cc1C1=NC(=O)C2=NC=NC2=N1
13,200 to 202,COC1CCCN(Nc2nc(Cl)nc3c2ncn3C2OC(CCl)C(O)C2O)C1 (stereo not drawn)
14,138,C=CCOc1ccc(-c2cc(C(=O)NCc3ccc(OC(C)(C)C(=O)O)c(C)c3)nn2C)cc1
15,155 to 157,CCOC(=O)C(=CNc1coc2ccccc2c1=O)C(=O)OCC
16,188 to 189,CCCOc1ccccc1-c1nc2nc(NCCCS(C)=O)ncc2c(=O)[nH]1 (stereo not drawn)
17,83 to 84.5,OC(CCCCCOc1ccccc1)c1cccc(OCc2ccc3ccccc3n2)c1 (stereo not drawn)
18,233 to 234,CCOC(=O)c1cn(-c2nc(F)cs2)c2nc(N3CCC(NC(=O)OC(C)(C)C)C3)ccc2c1=O (stereo not drawn)
19,249,CN(C)c1nc2c(c(=O)[nH]1)CC(S(=O)(=O)c1ccccc1)CC2 (stereo not drawn)
20,196 to 200,Nc1ccc2cccc(Oc3cc(-c4ccc(C(F)(F)F)cc4)ccn3)c2n1
21,132 to 134,COc1ccc(N2CCN(Cc3n[nH]c4ccccc34)CC2)nc1
22,98 to 102,OC1CSC(Oc2cc(-c3ccncc3)cnc2F)C(O)C1O (stereo not drawn)
23,160,CC(=O)OC1CC2(C)C(CCC2(O)C(C)=O)C2CCC3=CC(=O)CCC3(C)C12 (stereo not drawn)

# More lines, now with the values behind:
row,SMILES,melting point [°C]
1,COC(=O)[C@@H]1CN(C(=O)OC(C)(C)C)CC[C@@H]1C(=O)O (relative stereo),129 to 136
2,OCc1cccnc1Nc1ccccc1,180 to 182
3,O=C1O[C@@H](Cn2ccnn2)CN1c1ccc(-c2ccc(C3=NOC(CS(=O)(=O)CCO)C3)nc2)c(F)c1 (stereo partly drawn),210
4,Cc1cc(N2C=CC(=O)CC2)nn2cnnc12,264 to 266
5,CC[C@@]12C[C@@](C)(O)[C@](O)(c3ccccc3)C[C@H]1CCc1cc(OCC(C)(C)O)ccc12,190 to 193
6,CCCC(=O)c1cnc2c(OC)csc2c1Cl,76 to 78
7,COc1ccc(-c2cc3ccccc3[nH]2)cc1NCc1ccc([N+](=O)[O-])c(O)c1,134 to 135
8,CCOC(=O)c1c2n(c3cc(Br)c(F)cc3c1=O)C(C)CS2 (stereo not drawn),211
9,CC(C)(C)OC(=O)N1CCC2(CC1)c1ccccc1CS2=O (stereo not drawn),103 to 107
10,COc1cccc(C(=O)O)c1N,172 to 175
11,Cc1cc(-n2cncn2)c2cccc(OCc3c(Cl)ccc(S(=O)(=O)N4CCC[C@H]4C(=O)NCC4CCN(C(=O)OC(C)(C)C)CC4)c3Cl)c2n1,94
12,CCOC(=O)CC(=O)c1cc(F)c(Br)c(F)c1F,51 to 59
13,CCCCOP(=O)(C/C=C/CC1(C(=O)NCCC)c2cc(F)ccc2-c2ccc(F)cc21)OCCCC,142 to 146
14,CNCC1Cc2cc(OC)cc(-c3ccccc3F)c2O1 (stereo not drawn),110 to 112
15,Cc1c(-c2ccncc2)[nH]c(-c2ccncc2)c1C=O,278 to 280
16,Oc1cc(C(F)(F)F)ccc1-c1cc(Oc2ccc3cccnc3c2)ncn1,210 to 212
17,CC(=O)N(O)Cc1ccc(C(O)C#Cc2cccs2)cc1 (stereo not drawn),125 to 126
18,CNc1cc(S(=O)(=O)c2ccc(N)cc2)cc(Br)n1,171 to 173
19,Cc1nnc2n1-c1sc(C#CCn3c(=O)c4ccccc4c4ccccc43)cc1C(c1ccccc1Cl)=NC2,247 to 249

row,SMILES,melting point [°C]
1,CCOC(=O)c1cnc(O)nc1-c1ccccc1,> 260
2,C=CCn1cc(-c2ccccc2)c(=O)c(-c2cccc(C(F)(F)F)c2)c1,107 to 109
3,O=C1Cc2cccc(Oc3ccccc3F)c2O1,82 to 84
4,CC(C)C[C@H](NC(=O)OC(c1ccccc1)c1ccccc1)C(=O)Oc1c(Cl)c(Cl)c(Cl)c(Cl)c1Cl,84 to 86
5,CNC(=S)Nc1ccc(NNC=O)cc1,176 to 178
6,O=c1[nH][nH]c(=O)c2c(O)c3ccc(Br)cc3nc12,278
7,COP(=S)(OC)SCc1cc(=O)[nH]c(C(C)C)n1,89 to 93
8,CCOC(=O)c1ccc(N2CCOCC2)cc1,82 to 83
9,O=C1c2ccccc2C(=O)c2oc(-c3cccs3)nc21,> 260
10,CC(=O)Nc1ccc(F)cc1SCC#N,97 to 100
11,CCCCn1nc(C(N)=O)cc1C,114
12,Fc1cc(Cn2cncn2)cc2c1Cc1c(-c3ccsc3)n[nH]c1-2,236 to 239
13,O=[N+]([O-])c1ccc(Oc2nn(Cc3ccccc3F)c3ncccc23)nc1,111 to 113
14,CCCc1cnc2c(c1)C(=O)OC2=O,42 to 44
15,CC1(C)OC(=O)Nc2ccc(-c3cc(F)cc([N+](=O)[O-])c3)cc21,260 to 261
16,CCCCCNC(=O)N(CCCc1ccncc1)CCC12CC3CC(CC(C3)C1)C2,47 to 50
17,CCOC(=O)CCCn1c(=O)c2sc(N)nc2n(C)c1=O,170 to 171
18,CCc1cccc(-c2c(-c3ccc4nn(C)cc4c3)nsc2NC(=O)[C@@H]2C[C@H]2C)n1,159
19,ClCCOc1ccc(OCCCl)c(Cl)c1,135 to 137

row,SMILES,melting point [°C]
1,COC(=O)Nc1nc(C)c(-c2nc3ccccc3c(=O)n2-c2ccccc2Cl)s1,243 to 245
2,ClCc1cc2ccccc2nc1I,138 to 140
3,O=C(NC1C=NC=CC1=O)c1ccccc1F (stereo not drawn),116 to 117
4,Cc1ccc(N(c2ccc(C)cc2)c2ccc(-c3ccc(N(c4ccc(C)cc4)c4ccc(C)cc4)cc3)cc2)cc1,215 to 216
5,Cn1cc(C(=O)NCc2ccc(C#N)cc2)c(=O)c2cc(C#CCO)ccc21,230 to 232
6,COc1cc2c(Nc3ccc(Cl)cc3F)ncnc2cc1OCc1ccnc(C)c1,221 to 224
7,O=C(N[C@@H](CSC(=O)c1ccccc1)C(=O)N[C@@H](Cc1c[nH]c2ccccc12)C(=O)O)c1ccccc1,175 to 178
8,COc1cccc2nc(-c3cc(C)c(OCCN4CCCC4)c(C)c3)[nH]c(=O)c12,157 to 158
9,COC(=O)NC(=S)Nc1cc(C(=O)c2ccccc2)ccc1NCc1ccccc1,75 to 79
10,COc1cc2ncnc(N3CCN(C(=S)NCc4ccc(OC(F)(F)F)cc4)CC3)c2cc1OC,131 to 132
11,COc1ccc(C2c3c(C)c(N4CCN(c5ccc(OC)cc5)CC4)c(C)c(C)c3OC2(C)C)cc1 (stereo not drawn),205 to 207
12,CC(C)(C(=O)O)C(c1ccc(OCc2ccc3ccccc3n2)cc1)c1ccc(OCc2ccc3ccccc3n2)cc1,124 to 127
13,CCC1=CC=CC(CC)(c2ccncc2)C1c1c(OC(=O)C(C)(C)C)n2n(c1=O)CCOCC2 (stereo not drawn),146 to 147
14,COC(=O)C=Cc1ccccc1C#N,92 to 93
15,CCC(O)(CC)c1ccc(-c2cccc(OCc3ccc(CO)c(CO)c3)c2C)c(C)c1,81 to 82
16,COc1cc(CCC2OC(=O)NC2=O)ccc1OCc1nc(-c2ccccc2)oc1C (stereo not drawn),194 to 195
17,Cn1c(C=O)cc2ccccc21,83
18,Cc1ccc(-c2cc(F)c(F)cc2-c2ccc(S(C)(=O)=O)cc2)cc1Cl,138 to 139
